Values of other authors in patent US4729992A, “Cephalosporin esters, their production and use” (Tatsuo Chemical Ind., Ltd., priority 1984, dated 1988).

Assays:
Conditions in all cases: Antimicrobial Agent and Chemotherapy 14, 557-568 (1978)
Klebsiella pneumoniae = test system: Klebsiella pneumoniae
Proteus vulgaris = test system: Proteus vulgaris
Staphylococcus aureus = test system: Staphylococcus aureus
Escherichia coli = test system: Escherichia coli
Proteus mirabilis = test system: Proteus mirabilis
Proteus morganii = test system: Proteus morganii

Measured: antibacterial activity

CN(C)CCn1nnnc1SCC1=C(C(=O)O)N2C(=O)[C@@H](NC(=O)Cc3csc(N)n3)[C@H]2SC1 [compound [II], 7β-[2-(2-aminothiazol-4-yl)acetamido]3-[[[1-(2-dimethylaminoethyl)-1H-tetrazol-5-yl]thio]methyl]ceph-3-em-4-carboxylic acid]
potent antibacterial activity: all assays above
